Assay results published in paper PMC2783803 (Journal of medicinal chemistry, 2009).

Columns and labels:
human T1R2+T1R3 receptor = biological target: T1, human T1R2+T1R3 receptor (Homo sapiens, UniProt Q7RTX0); assay: Heterologous calcium mobilization assay, human sweet receptor in HEK293 cells; format: cell-based
T1 sequence (Q7RTX0 21-852): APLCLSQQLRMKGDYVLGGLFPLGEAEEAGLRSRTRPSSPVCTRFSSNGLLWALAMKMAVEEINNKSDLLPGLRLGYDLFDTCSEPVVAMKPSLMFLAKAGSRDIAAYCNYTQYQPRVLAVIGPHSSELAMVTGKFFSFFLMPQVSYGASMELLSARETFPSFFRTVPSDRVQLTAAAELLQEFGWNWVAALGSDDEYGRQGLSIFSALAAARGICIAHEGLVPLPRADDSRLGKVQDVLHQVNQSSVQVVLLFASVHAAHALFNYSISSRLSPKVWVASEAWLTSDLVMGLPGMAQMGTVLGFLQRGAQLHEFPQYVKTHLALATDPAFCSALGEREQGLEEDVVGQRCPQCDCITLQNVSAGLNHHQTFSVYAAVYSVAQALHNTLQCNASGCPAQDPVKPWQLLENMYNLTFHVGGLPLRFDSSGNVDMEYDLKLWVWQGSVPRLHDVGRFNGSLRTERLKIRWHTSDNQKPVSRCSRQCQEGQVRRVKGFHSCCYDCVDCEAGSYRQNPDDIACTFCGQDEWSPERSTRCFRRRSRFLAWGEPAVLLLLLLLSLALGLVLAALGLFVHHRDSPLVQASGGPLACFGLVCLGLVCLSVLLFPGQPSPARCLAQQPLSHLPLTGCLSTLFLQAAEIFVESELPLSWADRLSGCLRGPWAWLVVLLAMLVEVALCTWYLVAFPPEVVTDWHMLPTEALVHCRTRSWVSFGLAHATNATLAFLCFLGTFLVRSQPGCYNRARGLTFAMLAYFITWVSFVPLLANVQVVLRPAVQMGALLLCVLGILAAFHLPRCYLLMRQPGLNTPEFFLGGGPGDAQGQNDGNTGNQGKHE
T1 sequence (Q8TE23 20-839 partner): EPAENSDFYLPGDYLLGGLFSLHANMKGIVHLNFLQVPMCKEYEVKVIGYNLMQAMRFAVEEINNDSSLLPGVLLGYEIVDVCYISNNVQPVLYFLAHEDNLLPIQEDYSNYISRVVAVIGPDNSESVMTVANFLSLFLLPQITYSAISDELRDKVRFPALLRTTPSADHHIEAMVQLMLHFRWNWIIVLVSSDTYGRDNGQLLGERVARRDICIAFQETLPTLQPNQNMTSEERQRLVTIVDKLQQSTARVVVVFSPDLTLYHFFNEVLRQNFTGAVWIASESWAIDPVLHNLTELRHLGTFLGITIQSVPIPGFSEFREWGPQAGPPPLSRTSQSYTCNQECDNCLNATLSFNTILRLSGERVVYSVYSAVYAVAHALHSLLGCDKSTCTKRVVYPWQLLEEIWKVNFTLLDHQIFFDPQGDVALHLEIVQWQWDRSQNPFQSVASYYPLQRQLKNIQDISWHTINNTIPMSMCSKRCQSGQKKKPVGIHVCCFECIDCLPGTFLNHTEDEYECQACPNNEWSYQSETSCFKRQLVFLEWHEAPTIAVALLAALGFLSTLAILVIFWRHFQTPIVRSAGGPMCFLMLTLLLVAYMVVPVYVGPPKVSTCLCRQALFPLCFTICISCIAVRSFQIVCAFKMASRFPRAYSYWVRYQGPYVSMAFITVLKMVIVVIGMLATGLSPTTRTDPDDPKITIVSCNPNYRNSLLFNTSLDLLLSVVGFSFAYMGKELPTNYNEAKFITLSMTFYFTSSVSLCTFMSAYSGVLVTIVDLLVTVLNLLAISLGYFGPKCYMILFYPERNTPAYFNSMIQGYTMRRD

[1] = tested on: sweet and umami (MSG) taste; assay: Psychophysical self-experimentation, taste inhibition in vivo; set-up: species or system human; settings: self-experimentation by one author; data not shown
PPAR-alpha = settings: read-out: EC50 for activating PPAR-alpha; cited from earlier work
[2] = tested on: mouse sweet receptor (mT1R2+mT1R3); assay: Heterologous calcium mobilization assay, mouse sweet receptor; format: cell-based; settings: activated by 2.5mM sucralose; inhibitor at ~5-times IC50

For `O=C(O)COc1ccc(Cl)cc1Cl` [2,4D, (2,4-dichlorophenoxy)acetic acid], the IC50 (human T1R2+T1R3 receptor) was 70 µM.

In the case of `CC(C)(Oc1ccc(Cl)cc1)C(=O)O` [Clofibric acid, 2-(4-chlorophenoxy)-2-methylpropanoic acid], the “inhibition of sweet taste in vivo” value [1] is given as “potently inhibited”, the “inhibition of umami (MSG) taste in vivo” value [1] is given as “potently inhibited” and the EC50 (PPAR-alpha) is given as 50 to 55 µM.

With `COc1ccc(OC(C)C(=O)O)cc1` (centres unmarked) [Lactisole, 2-(4-methoxyphenoxy) propanoic acid] the “effect on the mouse sweet receptor” value [2] was “no effect”.
